Read-outs that look alike come from different tables or passages of the source. A value given as a limit tells only on which side of the number the result lay.

We go through eight molecules from patent publication US9556135B2, “Amino-dihydrothiazine and amino-dioxido dihydrothiazine compounds as beta-secretase antagonists and methods of use” (Amgen Inc., priority 2012, dated 2017).

In data set [1] the test system is pigment epithelium of the rat's eye. The conditions noted are these: higher compound dose given for three months; cited from earlier work.
The next data set has as its system Aβ in lumbar CSF. To be noted: after oral dosing of 30 or 90 mg, healthy volunteers; cited from earlier work.
The subject of data set [2] is Aβ40 in conditioned medium of cells stably expressing Amyloid Precursor Protein (APP). The data set is described as follows: In vitro BACE cell-based assay (HEK cell assay), Aβ40 sandwich ELISA. On the procedure: In Vitro BACE Cell-Based Assay
The cell-based assay measures inhibition or reduction of Aβ40 in conditioned medium of test compound treated cells expressing amyloid precursor protein.
Cells stably expressing Amyloid Precursor Protein (APP) were plated at a density of 40K cells/well in 96 well plates (Costar). The cells were cultivated for 24 hours at 37° C. and 5% CO2 in DMEM supplemented with 10% FBS. The test compounds were then added to cells in 10-point dose response concentrations with the starting concentration being either 100 μM or 10 μM. The compounds were diluted from stock solutions in DMSO and the final DMSO concentration of the test compounds on cells was 0.1%. After 24 h of incubation with the test compounds the supernatant conditioned media was collected and the Aβ 40 levels were determined using a sandwich ELISA. The IC50 of the compound was calculated from the percent of control or percent inhibition of Aβ 40 as a function of the concentration of the test compound.
The sandwich ELISA to detect Aβ 40 was performed in 96 well microtiter plates, which were pre-treated with goat anti-rabbit IgG (Pierce). The capture and detecting antibody pair that were used to detect Aβ 40 from cell supernatants were affinity purified pAb40 (Biosource) and biotinylated 6E10 (Signet Labs Inc.), respectively. The optimal concentration for the pAb40 antibody was 3 μg/ml in Superblock/TBS (Pierce) that was supplemented with 0.05% Tween 20 (Sigma).
Cellular supernatants were incubated with the capture antibody for 3 h at 4° C., followed by 3 wash steps in TBS-tween (0.05%). The detecting antibody incubation was for 2 h at 4° C., again followed by the wash steps as described previously. The final readout of the ELISA is Time-Resolved Fluorescence (counts per minute) using Delfia reagents Streptavidin-Europium and Enhancement solutions (Perkin Elmer) and the Victor 2 multilabel counter (Perkin Elmer).

In data set [3] the target is Beta Secretase enzyme (BACE1) (Homo sapiens (Human), UniProt P56817). Briefly: In vitro enzymatic BACE FRET assay. Format: biochemical. On the procedure:
In Vitro Enzymatic BACE FRET (Fluorescence Resonance Energy Transfer) Assay (Enzyme Assay Data in the Example Tables I and II)
The assay buffer used in this screen is 0.05 M acetate, pH 4.2, 10% DMSO final, 100 uM genapol (which is a nonionic detergent, below its Critical Micelle Concentration). […] This assay is effectively started by the addition of FRET substrate (50 nM) and the combination is incubated for one hour. The FRET assay is terminated with by addition of Tris buffer, which raises the pH to neutrality, and the fluorescence is determined. The FRET substrate is a peptide with commercially available fluorophore and quencher, on opposite sides of the BACE cleavage site. Proteolytic cleavage of the FRET substrate releases quenching of fluorescence (excitation […] and […]).

The target in the next data set is Cathepsin D (Cat D) (Homo sapiens (Human), UniProt P07339). Briefly: In vitro enzymatic Cathepsin D (Cat D) FRET assay. Format: biochemical. To be noted: read-out: CatD IC50. On the procedure: In Vitro Enzymatic Cathepsin D (Cat D) FRET (Fluorescence Resonance Energy Transfer) Assay Recombinant Cat D was expressed in CHO cells. […] The Cat D enzyme (9 nM) is pre-incubated for one hour with inhibitors, typically in about 1 uL of DMSO according to a serial dilution, is added thereto. […] The FRET assay is terminated with by addition of Tris buffer, which raises the pH to neutrality, and the fluorescence is determined. The FRET substrate is a peptide with commercially available fluorophore and quencher, on opposite sides of the BACE cleavage site. The Cat D substrate peptide sequence is based on sequence #1 of Table 1 from Gulnik et al. […] Where available, the in-vitro Cat D FRET assay data for each of the Examples, conducted by the first procedure, is provided.
Chain of Cathepsin D (Cat D) (P07339 65-412, species assumed): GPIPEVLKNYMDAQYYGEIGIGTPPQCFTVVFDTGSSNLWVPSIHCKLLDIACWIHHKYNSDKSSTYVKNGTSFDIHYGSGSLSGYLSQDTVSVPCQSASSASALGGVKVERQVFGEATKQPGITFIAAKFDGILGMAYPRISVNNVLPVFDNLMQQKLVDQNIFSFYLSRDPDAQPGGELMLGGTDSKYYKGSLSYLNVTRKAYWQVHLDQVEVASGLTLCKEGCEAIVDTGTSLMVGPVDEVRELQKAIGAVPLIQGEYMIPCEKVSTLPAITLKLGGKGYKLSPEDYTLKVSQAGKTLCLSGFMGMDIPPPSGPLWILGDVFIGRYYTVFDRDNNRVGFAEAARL

Chain of Beta Secretase enzyme (BACE1) (P56817 46-501): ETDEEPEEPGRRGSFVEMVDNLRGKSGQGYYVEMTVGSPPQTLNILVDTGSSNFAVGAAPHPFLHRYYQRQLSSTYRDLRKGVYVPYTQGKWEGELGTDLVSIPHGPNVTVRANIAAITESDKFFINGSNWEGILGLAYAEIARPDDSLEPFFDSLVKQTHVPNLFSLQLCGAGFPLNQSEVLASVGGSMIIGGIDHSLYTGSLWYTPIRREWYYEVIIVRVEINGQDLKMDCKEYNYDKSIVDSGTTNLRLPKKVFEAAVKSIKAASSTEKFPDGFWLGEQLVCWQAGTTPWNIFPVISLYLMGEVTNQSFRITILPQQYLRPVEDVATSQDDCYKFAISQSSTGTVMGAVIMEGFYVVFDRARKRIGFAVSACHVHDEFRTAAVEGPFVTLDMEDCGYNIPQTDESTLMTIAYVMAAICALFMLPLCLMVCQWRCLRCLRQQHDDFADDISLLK

Turning to `C[C@@]1(c2cc(-c3cncnc3)c(F)cc2F)CCSC(N)=N1` [LY 2811376], in data set [1], the rat toxicology finding result is on record as “damaged the pigment epithelium of the rat's eye”.
For the molecule `C[C@@]1(c2cc(-c3cncnc3)c(F)cc2F)CCSC(N)=N1` [LY2811376, (S)-4-(2,4-difluoro-5-pyrimidin-5-yl-phenyl)-4-methyl-5,6-dihydro-4H-[1,3]thiazin-2-ylamine], the “Aβ reductions in lumbar CSF” value with Aβ in lumbar CSF was “Prominent and long-lasting Aβ reductions in lumbar CSF”.
What is called IC50 is the concentration at which inhibition is half-maximal. As to “N-(3-((4aR,7aS)-3-amino-2,2-dimethyl-1,1-dioxido-7,7a-dihydro-2H-furo[3,4-b][1,4]thiazin-4a(5H)-yl)-4-fluorophenyl)-5-chloro-3-methyl-2-pyridinecarboxamide,N-(3-((4aS,7aR)-3-amino-2,2-dimethyl-1,1-dioxido-7,7a-dihydro-2H-furo[3,4-13][1,4]thiazin-4a(5H)-yl)-4-fluorophenyl)-5-chloro-3-methyl-2-pyridinecarboxamide [Example 427]”, the IC50 came out at 33 nM in data set [2] (average IC50, cell assay); 1 nM in data set [3] (average IC50, enzyme assay); 220000 nM at Cathepsin D (Cat D).
Take “N-(3-((7R)-9-amino-7-(fluoromethyl)-5,5-dioxido-5-thia-8-azaspiro[3.5]non-8-en-7-yl)-4-fluorophenyl)-5-(difluoromethoxy)-3-methyl-2-pyridinecarboxamide,N-(3-((7S)-9-amino-7-(fluoromethyl)-5,5-dioxido-5-thia-8-azaspiro[3.5]non-8-en-7-yl)-4-fluorophenyl)-5-(difluoromethoxy)-3-methyl-2-pyridinecarboxamide [Example 410]”: the 50% inhibitory concentration (IC50) in data set [2] (average IC50) was 11.9 nM; in data set [3] (average IC50), 2.3 nM; at Cathepsin D (Cat D), 170000 nM.
Turning to “N-(3-((4aR,7aS)-3-amino-2,2-dimethyl-1,1-dioxido-7,7a-dihydro-2H-furo[3,4-b][1,4]thiazin-4a(5H)-yl)-4-fluorophenyl)-5-chloro-2-pyridinecarboxamide,N-(3-((4aS,7aR)-3-amino-2,2-dimethyl-1,1-dioxido-7,7a-dihydro-2H-furo[3,4-b][1,4]thiazin-4a(5H)-yl)-4-fluorophenyl)-5-chloro-2-pyridinecarboxamide [Example 426]”, the IC50 is 13.6 nM in data set [2] (average IC50, cell assay); 1.5 nM in data set [3] (average IC50, enzyme assay); 170000 nM on Cathepsin D (Cat D).
`COc1cnc(C(=O)Nc2cc([C@@]3(C)CS(=O)(=O)C(C)(C)C(N)=N3)c(F)cn2)cn1` [Example 142, (S)—N-(4-(5-amino-3,6,6-trimethyl-1,1-dioxido-3,6-dihydro-2H-1,4-thiazin-3-yl)-5-fluoropyridin-2-yl)-5-methoxypyrazine-2-carboxamide]: the concentration for half-maximal inhibition (IC50) in data set [2] (Homo sapiens, HEK293, average IC50) was 4360 nM; in data set [3] (average IC50) it was 10000 nM; at Cathepsin D (Cat D) it was above 400000 nM.
For the molecule “N-(3-((4aR,7aS)-3-amino-2,2-dimethyl-1,1-dioxido-7,7a-dihydro-2H-furo[3,4-b][1,4]thiazin-4a(5H)-yl)-4-fluorophenyl)-5-methoxy-3-methyl-2-pyridinecarboxamide,N-(3-((4aS,7aR)-3-amino-2,2-dimethyl-1,1-dioxido-7,7a-dihydro-2H-furo[3,4-13][1,4]thiazin-4a(5H)-yl)-4-fluorophenyl)-5-methoxy-3-methyl-2-pyridinecarboxamide [Example 428]”, the IC50 amounted to 37.3 nM in data set [2] (average IC50, cell assay); 9.71 nM in data set [3] (average IC50, enzyme assay); 309000 nM on Cathepsin D (Cat D).
For `Cc1cc(C(F)F)cnc1C(=O)Nc1ccc(F)c([C@]2(C)CS(=O)(=O)[C@]3(C[C@@H](F)C3)C(N)=N2)c1` [Example 338, N-(3-((2S,4s,7R)-9-amino-2-fluoro-7-methyl-5,5-dioxido-5-thia-8-azaspiro[3.5]non-8-en-7-yl)-4-fluorophenyl)-5-(diffuoromethyl)-3-methyl-2-pyridinecarboxamide], the IC50 in data set [2] (average IC50, cell assay (Table II)) amounted to 10.8 nM; in data set [3] (average IC50, enzyme assay (Table II)) it was 2.94 nM; at Cathepsin D (Cat D) (Table II) it was 59000 nM.
